# Laboratory results from patent publication US20260294906A1, “TREATING PSORIASIS USING A SMALL MOLECULE INHIBITOR OF TUMOR NECROSIS FACTOR ALPHA” (SANOFI, priority 2023, published 2026).
# “Also recorded” adds a separate entry of the source.
# System: participants with mild to moderate psoriasis
# Assay: Adverse events and safety in the clinical study
# Type: in vivo, human
# Description: A double-blind, randomized, placebo-controlled phase 1 study was carried out in participants with mild to moderate psoriasis. Study participants were randomized to 200 mg twice a day (BID) of Compound 1 or placebo in 2:1 ratio (approximately 24 in the treatment group and 12 in the placebo group). The study comprised an up to 4-week screening period, and a 4-week treatment period with Compound 1 or placebo. An end-of-study visit was carried out 10±3 days after the last investigational medicinal product (IMP) administration.
# The primary objective of the study was to assess the safety, tolerability, and clinical efficacy of Compound 1 at 200 mg BID via oral administration. Also evaluated was the clinical effect of Compound 1 as compared to placebo on the percent change in PASI and TLS scores from baseline to week 2 and week 4. The percent change in PASI score from baseline to week 4 was determined. TLS score was also assessed over the same time period. Also assessed was the effect of Compound 1 on biomarkers of psoriasis. Blood samples collected at predetermined time points were processed to quantify serum levels of biomarkers, including interleukin (IL)-17A, IL-17F, and IL-22 by high sensitivity methods. IL-17A, IL-17F and IL-22 are the main cytokines released by Th17 cells. Plasma levels of Compound 1 were measured to assess pharmacokinetics in the study population.
# Two study interventions were used, Compound 1 and placebo. The Compound 1 intervention comprised 4× tablets of Compound 1 50 mg twice daily, i.e. 200 mg BID, for 4 weeks. The placebo intervention was 4× tablets of placebo twice daily for 4 weeks. Tablets were administered orally.
# Adverse events (AEs) were reported by the participant or observed by the Investigator, and were defined as follows: • An AE is any untoward medical occurrence in a patient or clinical study participant, temporally associated with the use of study intervention, whether or not considered related to the study intervention. • NOTE: An AE can therefore be any unfavorable and unintended sign (including an abnormal laboratory finding), symptom, or disease (new or exacerbated) temporally associated with the use of study intervention.
# Events meeting the AE definition: • Any abnormal laboratory test results (hematology, clinical chemistry, or urinalysis) or other safety assessments (e.g., ECG, radiological scans, vital signs measurements), including those that worsen from baseline, considered clinically significant in the medical and scientific judgment of the Investigator (i.e., not related to progression of underlying disease), e.g.: • Symptomatic and/or • Requiring either corrective treatment or consultation, and/or • Leading to IMP discontinuation or modification of dosing, and/or • Fulfilling a seriousness criterion, and/or • Defined as an AESI • Exacerbation of a chronic or intermittent pre-existing condition including either an increase in frequency and/or intensity of the condition. • New condition detected or diagnosed after study intervention administration even though it may have been present before the start of the study. • Signs, symptoms, or the clinical sequelae of a suspected drug-drug interaction. • Signs, symptoms, or the clinical sequelae of a suspected overdose of either study intervention or a concomitant medication. • Lack of efficacy or failure of expected pharmacological action per se will not be reported as an AE or SAE. Such instances will be captured in the efficacy assessments. However, the signs, symptoms, and/or clinical sequelae resulting from lack of efficacy will be reported as AE or SAE if they fulfill the definition of an AE or SAE.
# Complications that occur during hospitalization are AEs. If a complication prolongs hospitalization or fulfills any other serious criteria, the event is serious. […]
# [1] = 200 mg BID, N = 26, placebo 33.3%
smiles,measurement,setting,value
"CN1C(=O)c2cccc(OC(F)F)c2[C@H]2C[C@@H]1c1nc3ccc(-c4cnc(C5(N)CCC5)nc4)cc3n12 [Compound 1, (7R,14R)-11-[2-(1-aminocyclobutyl)pyrimidin-5-yl]-1-(difluoromethoxy)-6-methyl-6,7-dihydro-7,14-methanobenzimidazo[1,2-b][2,5]benzodiazocin-5(14H)-one]",safety and tolerability (in words),200 mg BID over 28 days,safe and well-tolerated
same,"serious AEs (SAEs), severe TEAEs or AEs of special interest (AESI)","200 mg BID, 4 weeks","no serious AEs (SAEs), severe TEAEs or AEs of special interest (AESI); also recorded: no serious AEs, severe treatment emergent AEs, or AESI being reported; also recorded: No serious or severe adverse events were observed"
same,Number of TEAEs leading to permanent study intervention discontinuation,"200 mg BID, 2 participants",2
same,drop-out due to CPK increase,"200 mg BID, Day 8, linked to increased physical activity",another participant dropped out on Day 8 due to CPK increase (grade 2) assessed by the investigator as non-drug related
same,drop-out due to nausea,"200 mg BID, Day 15",one participant dropped out on Day 15 due to nausea assessed by the investigator as drug related
same,Number of participants with Dysgeusia (PT),"200 mg BID, N = 26, placebo 0",16
same,% of participants with Dysgeusia (PT),"200 mg BID, N = 26, placebo 0%",61.5%
same,Number of participants with gastrointestinal disorders (SOC),"200 mg BID, N = 26, placebo 2",8
same,Number of participants with headache (PT),"200 mg BID, N = 26, placebo 4",8
same,Number of participants with infections and infestations (SOC),"200 mg BID, N = 26, placebo 4",4
same,Number of participants with nervous systems disorders (SOC),"200 mg BID, N = 26, placebo 4",19
same,% of participants with gastrointestinal disorders (SOC),"200 mg BID, N = 26, placebo 16.7%",30.8%
same,% of participants with headache (PT),[1],30.8%
same,% of participants with infections and infestations (SOC),[1],15.4%
same,% of participants with nervous systems disorders (SOC),[1],73.1%
same,severity of TEAEs,"200 mg BID, NCI-CTCAE grades",All TEAEs were of grade 1 or grade 2 severity and participants fully recovered
same,time for CPK value to return to baseline level,"200 mg BID, one participant, CPK increase grade 2",7 days
same,% of participants with treatment-emergent adverse events (TEAEs),"26 participants, 200 mg BID, 4 weeks, placebo 58.3%",92.3%
same,Number of participants with treatment-emergent adverse events (TEAEs),"out of 26 participants, 200 mg BID, 4 weeks, placebo 7 of 12",24
same,"PCSA for vital signs, ECG and laboratory parameters (in words)",scattered across placebo and Compound 1 groups,"no safety concerns based on vital signs, ECG or laboratory results; also recorded: All were considered not clinically meaningful by the investigator"
